Measurements as given in the METLIN SMRT retention time set (Domingo-Almenara et al. 2019).

Test: gradient 5% acetonitrile 3 min, to 50% in 2 min, to 85% in 15 min, held 3 min, 100 µL/min
Conditions: column: Zorbax Extend-C18 2.1 x 50 mm; eluents: water / acetonitrile, 0.1% formic acid
Method in brief: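 The system's dead and dwell volumes were 40 μL and 900 μL, with a Zorbax Extend-C18 column (2.1 × 50 mm, 1.8 μm) run at 100 μL/min in water and acetonitrile containing 0.1% formic acid each. Pure standards were analyzed in mixtures of ~100 molecules by HPLC–quadrupole time-of-flight mass spectrometry in positive and negative ionization mode. Retention time was assigned from computationally picked, manually inspected adduct peaks.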

Structure (SMILES)	RP-LC retention time
CCC1CN(C(=O)N2CCC(C(=O)NCCCOC(C)C)CC2)c2cc(C)ccc2O1 (centres undefined)	873 s
Cc1cc(NC(=O)c2ccc(=O)n(C)n2)no1	598 s
COCC(=O)Nc1ccc(SCc2nnc(-c3ccc4c(c3)OCO4)o2)cc1	789 s
Cc1cc(OCC(=O)Nc2ccccc2)nc(N2CCN(c3ccccc3)CC2)n1	804 s
CCOC(=O)CNC(=O)NCC(c1ccccc1)c1c[nH]c2ccccc12 (centres undefined)	847 s
COc1ccc(C(=O)NCC(c2cccn2C)N2CCCC2)c(OC)c1OC (centres undefined)	566 s
CCOc1ccc(C2Cn3nnc(-c4nc(C)no4)c3CO2)cc1 (centres undefined)	917 s
COc1ccc(OCc2ccc(C(=O)Nc3cc4c(cc3C(C)=O)OCO4)o2)cc1	1060 s
Cc1ccc(NS(=O)(=O)c2c(C)sc(C)c2-c2cc(C(F)(F)F)on2)cc1	1190 s
Cc1ccc2[nH]cc(CCNC(=O)C(C)n3c4ccccc4c4cnn(C)c(=O)c43)c2c1 (centres undefined)	906 s
C=CCNC(=O)C1CCN(C(=O)Nc2ccc(NC(=O)Nc3ccc(C)c(C)c3)cc2)CC1	740 s
CC(=O)NCc1nc(-c2ccc(N3CCSCC3)nc2)no1	653 s
COc1ccc(N2CCN(C(=O)CCN3C(=O)C4C5C=CC(C5)C4C3=O)CC2)cc1 (centres undefined)	650 s
CCCS(=O)(=O)N1CCC(Cc2ccc(COc3ccncc3)cc2)CC1	701 s
CCn1cc2c3c(cccc31)CN(C(=O)CCc1ccccc1)CC2	1050 s
CCC(=O)CCCCC[C@@H]1NC(=O)[C@H]2CCCCN2C(=O)[C@H]([C@H](C)CC)NC(=O)[C@H](Cc2cn(OC)c3ccccc23)NC1=O	965 s
Cc1ccc(Cl)cc1N1CCN(c2ccc3cc(S(=O)(=O)N4CCOCC4)ccc3n2)CC1	1200 s
O=C1CSCc2nc3ccccc3n21	634 s
COc1ccc(S(=O)(=O)N2CC3CN(C(=O)c4cc(C)oc4C)CC(C2)O3)cc1	785 s
CCN1CCN(CC(=O)Nc2ccc(C(C)=O)cc2)C(=O)C1=O	580 s
CC(=O)c1ccc(NC(=O)CN2C(=O)CC(c3ccccc3)=Nc3cccnc32)cc1	780 s
CC1Cc2cc(-c3cc(CC(=O)N4CCN(c5ccccc5F)CC4)no3)ccc2O1 (centres undefined)	975 s
C[C@H](NC(=O)c1cc2ccccc2[nH]1)C(=O)NCCc1c[nH]c2ccccc12	1150 s

Structure (SMILES)	RP-LC retention time
CC(C)(C)n1nc(C2CC2)cc1NC(=O)Nc1ccccc1	889 s
Cc1cccc(CNC(=O)C2=C3CCCN3c3ccccc3S2(=O)=O)c1	856 s
COc1ccc2[nH]cc(CCNC(=O)C3CCCCC3)c2c1	804 s
O=C(NCCN1CCOCC1)c1ccc(-c2ccc(N3CCSCC3)nc2)cc1	568 s
CCC(C)NC(=O)c1nc(-c2ccnc(N3CCCCCC3)c2)no1 (centres undefined)	708 s
CSc1ccc(CNC(=O)C2CCN(c3nnc(-c4ccc(C)cc4)o3)CC2)cc1	931 s
Cc1nc(Cn2cccc2C(=O)Nc2ccc(Cl)cc2F)no1	893 s
COc1cc(NC(=O)CCSc2nc3c(=O)n(C)c(=O)n(C)c3n2C)c(OC)cc1Cl	735 s
O=C(NCc1ccccc1F)c1ccc2c(c1)CNCCO2	605 s
Cc1ccc(NC(=O)C2CCN(S(=O)(=O)c3cn(C(C)C)cn3)CC2)cc1N(C)C	597 s
CCn1c(=O)c(N2CCN(S(=O)(=O)c3ccc4c(c3)CCC4)CC2)nc2ccncc21	748 s
O=C(NCc1cccnc1)C1(c2ccccc2)CCOCC1	540 s
COC(=O)Cn1c(C2CC(=O)N(c3cc(Cl)ccc3OC)C2)nc2ccccc21 (centres undefined)	758 s
Cc1ccccc1-c1noc(-c2nc(-c3ccncc3)no2)n1	1090 s
O=C(C1CCN(S(=O)(=O)c2ccc(-c3noc(C4CCCCC4)n3)cc2)CC1)N1CCCC1	836 s
CCOc1ccc(N2CC(NC(=O)N3CCN(C(=O)c4ccco4)CC3)CC2=O)cc1 (centres undefined)	632 s
O=C(NCc1ccccn1)C(=O)Nc1nccs1	527 s
CCc1ccc(Oc2cc(N3CCC(C(=O)NCCc4ccccn4)CC3)ncn2)cc1	656 s
CC1CCCN(c2nc(-c3ccc(Cl)cc3)nc3ccccc23)C1 (centres undefined)	941 s
O=C(Nc1ccccc1F)N1CCCC1c1nc(-c2cccc(Cl)c2)no1 (centres undefined)	1060 s
CC(C)c1ccc(NC(=O)Cn2nc3n(c2=O)CCCCC3)cc1	779 s
Cc1noc(C)c1Cc1ccc(C(=O)N2CCC(c3nc(CCOCC4CC4)no3)C2)o1 (centres undefined)	784 s
CC1Oc2ccccc2N(CC(=O)N2CCN(c3cc(=O)n(C)c(=O)n3C)CC2)C1=O (centres undefined)	656 s

Structure (SMILES)	RP-LC retention time
CCOc1ccc(-n2c(N3CCSCC3)nc3cc(C(=O)OC)ccc3c2=O)cc1	800 s
O=C(c1cnn2c(-c3ccc4c(c3)OCO4)ccnc12)N1CCN(c2ccccn2)CC1	598 s
Cc1cccc(NS(=O)(=O)c2ccc(-c3nnc(C4CCC4)o3)o2)c1C	949 s
COc1cc(Cl)ccc1C(=O)N1CCN=C1N1CCN(c2ccccc2F)CC1	749 s
CN(C)CCNC(=O)Cn1c(=O)n(-c2ccccc2)c2ncccc21	579 s
COc1ccc(-n2cc(C(=O)O)c3c2C(C(F)(F)F)CC(=O)N3)c(OC)c1 (centres undefined)	731 s
COCCN1C(=O)CCC2(C(=O)Nc3cc(OC)cc(OC)c3)CCCC=C12 (centres undefined)	763 s
O=C(CSc1ccc(N2CCCC(C(=O)NC3CC3)C2)nn1)NCc1ccccc1Cl (centres undefined)	635 s
CCOc1ccccc1NC(=O)C1CCN(c2cncnc2N2CCCCC2)CC1	742 s
COc1cc(S(=O)(=O)NC2CC(C)(C)NC(C)(C)C2)ccc1F	553 s
CCn1cc(CCN2CCC(C(=O)Nc3ccccc3C)CC2)c2cccnc21	621 s
COc1ccc(C2Cn3nnc(-c4nc(-c5ccccc5Cl)no4)c3CO2)cc1 (centres undefined)	1150 s
Cc1ccc(Nc2cc(C)nc3ccnn23)cc1	620 s
CCCn1cc(CCNS(=O)(=O)Cc2ccc(F)cc2Cl)c2cccnc21	900 s
CC(C)N1CCC2(CC1)N=C(c1ccc3c(c1)OCO3)CC(c1ccccc1O)N2 (centres undefined)	593 s
Cc1noc(C)c1S(=O)(=O)N1CCC(c2noc(COCC3CC3)n2)CC1	931 s
CCc1ccccc1NC(=O)N1CCC2(CC1)NC(=O)c1ccccc1N2C	731 s
CC(C)(C)n1ncc2c(=O)n(NC(=O)c3cc(=O)c4ccccc4o3)cnc21	713 s
O=C(Cn1cnc2c(sc3nc(-c4ccccc4)ccc32)c1=O)Nc1ccc2c(c1)OCCO2	948 s
Cc1ccc2[nH]cc(CCN3CC(C(=O)NC4CCCCCC4)CC3=O)c2c1 (centres undefined)	875 s
CCC(C(=O)N1CCN(c2cc(=O)n(C)c(=O)n2C)CC1)N1C(=O)COc2ccccc21 (centres undefined)	702 s
O=C(O)C1CCCN1C(=O)c1ccc(N2C(=O)C3C4C=CC(C4)C3C2=O)cc1 (centres undefined)	642 s
COC(=O)c1c[n+]([O-])ccc1OC	603 s

Structure (SMILES)	RP-LC retention time
COc1ccc(-n2nc(C)c3sc(N4CCCC(C(=O)NC5CCCC5)C4)nc32)cc1 (centres undefined)	1040 s
COc1ccc(-c2ccnn2-c2ccc(SCC(N)=O)nn2)cc1	777 s
O=C(NCc1ccc(F)cc1)N1CCCC(Cn2c(C3CC3)nc3cccnc32)C1 (centres undefined)	669 s
COc1ccc(N2CCN(C(=O)c3c(OC)cc(=O)n4c3CCCC4)CC2)cc1	660 s
O=C(c1ccco1)N1CCN(c2ccc(=O)n(-c3ccccc3)n2)CC1	701 s
CCOc1ccc(NC(=O)NC2CCN(c3cc(C)cc(C)c3)C2=O)cc1 (centres undefined)	886 s
CCC1CCCCN1C(=O)c1cnc2nc(C)ccc2c1Nc1ccc(C)cc1C (centres undefined)	706 s
O=C(CCC1CCCC1)Nc1nc(-c2ccccc2)cs1	1180 s
COc1ccc(CNC(=O)C2(C)Oc3cccnc3N(C(C)C)C2=O)cc1OC (centres undefined)	836 s
CCc1cc(=O)n(CC(=O)Nc2ccc(OC)c(F)c2)c(N)n1	788 s
CCOC(=O)N1CCN(C(=O)c2cccc([N+](=O)[O-])c2C)CC1	695 s
CC(=O)Nc1ccc(NC(=O)C2CCCN(C(=O)c3cc(-c4ccncc4)n[nH]3)C2)cc1 (centres undefined)	566 s
Cc1cc(C)n(-c2ccc(SCc3ccccc3Cl)nn2)n1	1150 s
Cc1ccc(S(=O)(=O)N2C[C@@H](F)C[C@H]2C(=O)N2CCCCC2)cc1C	823 s
Cc1ccn(-c2ccc(Nc3ccc(NC(=O)c4ccccc4C(F)(F)F)cc3)nn2)n1	809 s
O=C(NCCS(=O)(=O)N1CCc2ccccc2C1)C1CC1	695 s
COc1cc(-c2nc(Cn3ccn4nc(-c5ccc(F)cc5)cc4c3=O)c(C)o2)cc(OC)c1OC	996 s
CCc1cc(=O)n(CC(=O)Nc2ccc(Cl)cc2)c(-c2ccccc2)n1	1190 s
Cc1nc(-c2ccccc2)sc1C(=O)Nc1nc(-c2ccc(F)cc2)c(C)s1	1280 s
CN1C(=O)c2cc(S(=O)(=O)NCc3ccccc3F)ccc2Oc2cccnc21	871 s
